# From PubChem BioAssay (NCI)
# Where “and” joins values, the source holds several entries; their conditions need not be identical. Identical values can stand only once.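 Growth conditions: 96-well plates. Treatment: test compound, 48 hours, 5 concentrations. Analysis: linear interpolation between bracketing concentrations; unreached endpoints set to highest concentration. GI50 = concentration required for 50% inhibition of growth. TGI: total growth inhibition.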
# System: MDA-MB-468 breast
# Experiment: inhibition of tumour cell growth, NCI panel, 48 h
Structure (SMILES),GI50,TGI
OCCN1CCN(CCCN2c3ccccc3Sc3ccc(Cl)cc32)CC1,1270 nM,2700 nM
Fc1cccc(COc2ccc(Nc3ncnc4sc(-c5cccs5)cc34)cc2Cl)c1,201 nM,2310 nM
COc1ccc(C2=N[C@@H](Cc3ccccc3)C(=O)Nc3ccsc32)cc1,1760 nM,4580 nM
O=Nc1ccc(O)c(=O)cc1,739 nM,2440 nM
O=c1c2c(=NCCN3CCCC3)cc3c(=O)n(CCCN4CCOCC4)c(=O)c4c(-c5ccc(CN6CCCC6)cc5)cc(c(O)n1CCCN1CCOCC1)c2c4-3,32.4 nM,119 nM
Cc1cccc(N(C)C(=O)[C@@H]2[C@H](O)CCN2c2nc(C)cc(C(F)(F)F)c2C#N)c1,17300 nM,51300 nM
CCC(C)[C@H]1O[C@]2(CC[C@@H]1C)C[C@@H]1C[C@@H](C/C=C(\C)[C@@H](OC3C[C@H](OC)C(O[C@H]4C[C@H](OC)[C@@H](O)[C@H](C)O4)[C@H](C)O3)[C@@H](C)/C=C/C=C3\CO[C@@H]4[C@H](O)C(C)=C[C@@H](C(=O)O1)[C@]34O)O2 (stereo partly drawn),1600 nM,3400 nM
CC(=O)Nc1ccc2c(c1)C(c1ccccc1Cl)=Nc1c(n[nH]c1C)N2,1630 nM,> 25000 nM
CCSCC1CC(O)(c2ccccc2)CC(c2ccc(F)cc2)O1 (stereo not drawn),2040 nM,6050 nM
C=C1CC[C@@H]2[C@](C)(COC(C)=O)[C@H](OC(C)=O)CC[C@@]2(C)[C@@H]1CC(Nc1ccc(S(=O)(=O)NC(C)=O)cc1)C1=CCOC1=O (stereo partly drawn),1530 nM,3130 nM
CC(=O)c1ccc2c(c1)c1cc(C(C)=O)ccc1n2CCNC(C)C,330 nM,1740 nM
Cc1nc([P+](c2ccccc2)(c2ccccc2)c2ccccc2)c(Sc2sc(-c3ccccc3)nc2[P+](c2ccccc2)(c2ccccc2)c2ccccc2)o1,417 nM,3280 nM
O=C(CCCCCCNC(=O)C(O)(O)C(F)(F)F)Nc1ccc(Cl)cc1,1380 nM,22200 nM
N#Cc1c(-n2c(Br)c(Br)c3cc(Br)ccc32)[nH]c2c(Br)cc(Br)cc12,907 nM,3340 nM
Cc1nc2ccc(Nc3nc(Cl)nc(N4CCOCC4)n3)cc2n1Cc1ccccc1,2210 nM,7090 nM
Cc1cc(O)c(=O)cc2c1C[C@H]1CC(C)(C)/C=C/C[C@]3(C)Oc4cc(=O)c(O)cc(C)c4C[C@H]3C[C@H](O)[C@@]1(C)O2,< 15.2 nM and 7.03 nM,243 nM and 106 nM
Fc1cc2[nH]ncc2c2c3c(c(-c4cn[nH]c4C(F)(F)F)nc12)CCCC3,1580 nM,4350 nM
CC(C)(C)c1ccc(S(=O)(=O)Oc2ccc3c4c(c(=O)oc3c2)CCCCC4)cc1,3410 nM,> 100000 nM
CC(N)C(Cc1ccc(Cl)cc1)c1ccc(Cl)cc1 (stereo not drawn),2960 nM,11700 nM
COC[C@@H](N=C1NC(=O)/C(=C/c2ccc3ncccc3c2)S1)c1ccccc1,4510 nM,17600 nM
CCOC(=O)c1cc(C(=O)c2cc(OC)c(OC)c(OC)c2)n2ncccc12,248 nM,32200 nM

Structure (SMILES),GI50,TGI
CCN1C(=S)N(c2ccccc2)C2NC(=S)N(/N=C/C=C/c3ccccc3OC)C21 (stereo not drawn),292 nM,1060 nM
O=S(=O)(NCCCNc1nccc(-c2c(-c3ccc(O)cc3)nc3sccn23)n1)c1ccc(F)cc1,2000 nM,9430 nM
CCN(CC)c1ccc(/C=N/NC(=O)CSc2nc3ccccc3c(=O)n2CCc2ccc(S(N)(=O)=O)cc2)c(O)c1,2120 nM,> 100000 nM
CN(c1ncccc1CNc1nc(Nc2ccc3c(c2)CC(=O)N3)ncc1C(F)(F)F)S(C)(=O)=O,1830 nM and 1620 nM,4040 nM and 4840 nM
O=C(Nc1ccc2[nH]nc(-c3ccncc3)c2c1)[C@@H]1CCN(CC(=O)N2CCN(c3ccc(-c4ncccn4)cc3)CC2)C1,> 100000 nM,> 100000 nM
COc1cc(C2Cc3ncccc3-c3[nH]c(=O)c4cccnc4c32)cc(OC)c1OC (stereo not drawn),340 nM,–
Cc1cc2nc3c4cc(O)ccc4n(CCN(C)C)c3nc2cc1C,816 nM,2780 nM
CCOC(=O)c1ccc(NC(=O)Nc2nncs2)cc1,176 nM,14800 nM
COc1ccc(/C=C/C(=O)c2cc(OC)c(OC)c(OC)c2)cc1OCC(=O)Nc1nc2ccc(OC(F)(F)F)cc2s1,3520 nM,21200 nM
COc1cc(OC)c(S(N)(=O)=O)cc1C(=O)/C=C/c1ccccc1,1200 nM,9280 nM
COc1ccc(C2CC(c3cccc(Nc4ccnc5cc(Cl)ccc45)c3)=NN2C=O)cc1 (stereo not drawn),239 nM,836 nM
Nc1nccc(-c2c(-c3ccc(F)cc3)ncn2C2CCNCC2)n1,649 nM and 2520 nM,> 10800 nM and 11500 nM
NS(=O)(=O)c1ccc(Nc2cc(-c3cccc(O)c3)[nH]n2)cc1,9580 nM,> 25000 nM
C#Cc1nc(/C=C/C(=O)c2nccn2C)cs1,470 nM,1470 nM
COc1cc(/C=C\c2cc(OC)c(OC)c(OC)c2)cc(N/C=C\C(=O)c2ccc(OC(F)(F)F)cc2)c1OC,3160 nM,> 100000 nM
CCN(Cc1ccc(C)cc1)c1ccc(CO)c(Cl)c1,16.9 nM,44.5 nM
C/C(=N\NC(=S)N1CCCCC1)c1ccccn1,< 10 nM,135 nM
CC(=O)O[C@H]1C(=O)[C@@]2(C)C(C(OC(=O)c3ccccc3)[C@]3(O)C[C@H](OC(=O)C(OC(=O)CCCC(=O)NCCCN(C)C)C(NC(=O)c4ccccc4)c4ccccc4)C(C)=C1C3(C)C)C1(OC(C)=O)COC1C[C@@H]2O (stereo partly drawn),< 10 nM,10400 nM
O=C(Cc1ccc(/C=C/C(=O)c2ncc[nH]2)cc1)Nc1ccc(F)cc1,974 nM,3140 nM
CCCCCCNC(=O)Oc1ccc(/C(=C(/C)c2ccc(OC)cc2)c2ccc(OCCN3CCCCCC3)cc2)cc1,2040 nM,4760 nM
CS(=O)(=O)Nc1cncc(-c2ccc3ncnc(Nc4ccc(F)c(Cl)c4)c3c2)c1,181 nM,936 nM
